One data set has as its system KB7 wild-type. Put plainly: Active immunization with peptide, mice, KB7 wild-type challenge. Type of data set: in vivo, Pseudomonas aeruginosa. To be noted: immunized animals (FIG. 6). As for the experimental part:
(§1) A.BY/SnJ mice were actively immunized at week 0 with 40-50 μg of peptide-tetanus toxoid conjugate mixed with 100 μg of Adjuvax as adjuvant in 50 μl of 10 mM PBS at pH 7.2. Control mice were given 50 μ of 10 mM PBS at pH 7.2 containing 100 μg of Adjuvax. […] Each test group and the control group consisted of ten animals. The effectiveness of the vaccine was determined by the survival rate of the test animals up to 48 hours.

The next data set relates to AcKB7(128-144)OH. The data set can be described thus: Competition ELISA, antiserum affinity for KB7 peptide. Type of data set: binding, Pseudomonas aeruginosa. Particulars: for cross-reactivity of the antiserum with KB7: antiserum raised to the named peptide. (In general: An ELISA detects its analyte on a solid surface through an enzyme-linked reagent.)
The test system of data set [1] is Pseudomonas aeruginosa agarose beads. Put plainly: Active intratracheal model, CF mice. Type of data set: in vivo. Particulars: 10 days post i.t. challenge.
The next data set deals with AcP1(126-148)OH. Put plainly: Competition ELISA, antiserum affinity for P1 peptide. The data set is classed as binding, Pseudomonas aeruginosa. To be noted: for cross-reactivity of the antiserum with P1: antiserum raised to the named peptide.
The next data set concerns the target AcPAK(128-144)OH (Pseudomonas aeruginosa, UniProt P02973). The data set is classed as binding.
The target in data set [2] is AcPAO(128-144)OH (Pseudomonas aeruginosa, UniProt P04739). Type of data set: binding. To be noted: for cross-reactivity of the antiserum with PAO: antiserum raised to the named peptide.
For a further data set, the system named is P1 wild-type. The data set can be described thus: Active immunization with peptide, mice, P1 wild-type challenge. To be noted: immunized animals (FIGS. 4, 5). Type of data set: in vivo, Pseudomonas aeruginosa. As for the experimental part:
as §1

For data set [3], the system named is Pseudomonas aeruginosa strain PAO. Particulars: in vivo.
Data set [4] deals with peptide antigen used to raise the antiserum. The data set can be described thus: Competition ELISA, antiserum affinity for its own peptide antigen. Also on record: species or system Pseudomonas aeruginosa. Particulars: peptide giving 50% inhibition of antibody binding to PAK pilin; read-out: Antigen I50.
In data set [5] the test system is AcPAO(128-144)OH. The data set is classed as binding, Pseudomonas aeruginosa. To be noted: cross-reactivity of an antiserum: affinity for native PAK over native PAO peptide, 1 = same affinity.
In a further data set the test system is PAK wild-type. Put plainly: Active immunization with peptide, mice, PAK wild-type challenge. Type of data set: in vivo, Pseudomonas aeruginosa. To be noted: immunized animals (FIG. 7). On the procedure:
as §1

Setting [6] is: fold increase (+) or decrease (−) in affinity compared to antiserum 17-01.

pIC50: −log10 of the molar value. “Also recorded” adds a separate entry of the source.

This is an account of results in patent US20030228324A1, “Peptide compositions and methods of producing and using same” (priority 1999, published 2003).

On to KCKSDQDPQFIPKGCSK [CS1], for which, in the data set with KB7 wild-type, the “protection after KB7 wild-type challenge” value is reported as “effective in protecting; also recorded: good protection”. Further, the “cross-reactivity of the antiserum with KB7” value in the data set with AcKB7(128-144)OH is “moderate cross-reactivities”. In addition, the “Colony Forming Units in BAL Fluid” value in [1] (immunized i.n. & i.p.) was 47 CFU (× 10^3)/mL; in data set [1] (immunized i.n.) it was 0 CFU (× 10^3)/mL; in data set [1] (immunized i.p.) it was 5 CFU (× 10^3)/mL. Further, the “White Blood Cell Counts in BAL Fluid, Total Cells” value in data set [1] (immunized i.n. & i.p.) was 4 (× 10^4)/mL; in [1] (immunized i.n.) it was 1 (× 10^4)/mL; in [1] (immunized i.p.), 28 (× 10^4)/mL. In the data set on AcP1(126-148)OH, the “cross-reactivity of the antiserum with P1” value is given as “moderate cross-reactivities”. Further, at AcPAK(128-144)OH (antiserum raised to the named peptide), the “cross-reactivity of the antiserum with PAK” value is “very high cross-reactivities”. At AcPAO(128-144)OH [2], the “cross-reactivity of the antiserum with PAO” value (“cross-reactivity … with PAO” below) was “very high cross-reactivities”. The “protection after P1 wild-type challenge” value in the data set on P1 wild-type is on record as “effective in protecting; also recorded: high level of protection”.
Turning to KCKSTQDEMFTPKGCSK [CS4], the “protection after P1 wild-type challenge” value with P1 wild-type is “good protection”.
On to “KCTSDQDEQFIPKGCSK [PAK, reference compound]”, for which the “cross-reactivity … with PAO” value at AcPAO(128-144)OH [2] is “cross-reactive with the native PAO sequence”. Further, the “protection / survival time after PAO wild-type challenge” value in [3] is on record as “does not provide protection against PAO challenge”.
As to KCTSDQDPQFIPKGCSK [E135P], in the data set with AcKB7(128-144)OH, the “cross-reactivity of the antiserum with KB7” value is recorded as “not able to effectively bind; also recorded: not cross-reactive”. In addition, in the data set on AcKB7(128-144)OH (setting [6]), the “KB7 A” value is recorded as −1.2. Also, the pIC50 in the data set with AcKB7(128-144)OH (peptide giving 50% inhibition of antibody binding to PAK pilin, read-out: KB7 I50) was 3.08; in data set [4], 6.15; in the data set on AcP1(126-148)OH (competition ELISA on PAK pili, read-out: I50 for P1) it was 3.75; at AcPAK(128-144)OH (competition ELISA on PAK pili, read-out: I50 for PAK), 6.39; at AcPAO(128-144)OH [2] (competition ELISA on PAK pili, read-out: I50 for PAO) it was 2.32. Besides, the “cross-reactivity of the antiserum with P1” value in the data set on AcP1(126-148)OH is given as “not cross-reactive”. In addition, the “PI A” value in the data set with AcP1(126-148)OH (setting [6]) was “+6.9”. In addition, the “PAK A” value on AcPAK(128-144)OH (setting [6]) is reported as −2.2. In addition, the KPAK/KPAO in the data set on AcPAO(128-144)OH [5] is 11,600. Further, at AcPAO(128-144)OH [2], the “cross-reactivity … with PAO” value was “not able to effectively bind; also recorded: less cross-reactive than native PAK antiserum; also recorded: less cross-reactive to PAO than PAK peptide”. Moreover, the “PAO A” value at AcPAO(128-144)OH [2] (setting [6]) is recorded as −19.7.
For the sequence KCTSTQDPQFIPKGCSK [CS2], the “protection after PAK wild-type challenge” value in the data set with PAK wild-type is reported as “very high level of protection”. The “cross-reactivity … with PAO” value with AcPAO(128-144)OH [2] was “enhanced cross-reactivity to PAO”. Also, in [3], the “protection / survival time after PAO wild-type challenge” value is “complete protection”. In addition, in the data set with P1 wild-type, the “protection after P1 wild-type challenge” value is “high level of protection”.
On to KCTSTQDPQFTPKGCSK [CS3], for which the “protection after P1 wild-type challenge” value in the data set with P1 wild-type was “high level of protection”.
